Patent US10265322B2, “Use of PAR-1 antagonists for preventing and/or treating pelvi-perineal functional pathological conditions” (PIERRE FABRE MEDICAMENT, priority 2013, dated 2019)
Counter-ions that a name gives are not always drawn.

Key:
[1] = tested on: PAR; assay: trypsin-induced contraction of rat-isolated bladder strips, naive animals; settings: for effect on trypsin-induced bladder contraction at the other concentrations: other concentrations tested; for amplitude of bladder contraction: trypsin 3000 BAEE U/mL; for reduction in bladder contraction: trypsin
Excerpt: (§1) Purpose of the experiment: Evaluate the role of 3-(2-Chloro-phenyl)-1-[4-(4-fluoro-benzyl)-piperazin-1-yl]-propenone on the amplitude of bladder contraction induced by trypsin and TFLLR. The experiment was led in parallel on naïve bladders and on bladders subjected to inflammation procedure. The effect of the compound of the invention was compared with that of a reference PAR1 antagonist: compound SCH203099, (Ahn et al. Biochem. Pharmacol. 60(10:1425-1434, 2000).
(§2) In naïve rats (no administration of cyclophosphamide) or 24 hours after administration of cyclophosphamide, the animals were anaesthetised with pentobarbital (60 mg/kg) and euthanized. The bladder was rapidly taken and placed in modified Krebs-Henseleit oxygenated solution having the following composition (mM): NaCl 114; KCl 4.7; CaCl2 2.5; MgSO4 1.2; KH2PO4 1.2; NaHCO3 25 and glucose 11.7 (pH 7.4 with 95% O2 and 5% CO2). The bladder was cleaned of conjunctive tissue, weighed, the distal and proximal portions removed and the bladder cut in longitudinal direction into two equal strips. These strips were attached with silk thread and immersed in a 10 mL isolated organ bath (EMKA Technologies) containing the Krebs-Henseleit oxygenated solution with 95%:5% mixture of O2/CO2 held at 37° C. The bladder strips were connected via the silk thread to isometric sensors (IT50 model, EMKA Technologies) connected to amplifiers (EMKA Technologies). Contractile responses were recorded using IOX2® software (EMKA Technologies).
(§3) For an initial stabilisation period of at least 90 minutes, rinsing operations were carried out every 15 minutes and the tensioning of each bladder strip readjusted to 1.0 g. The strips were then exposed to 50 mM KCl to verify their viability. If the contraction amplitude of the strips was less than 1.0 g, the tissues were discarded and not included in the experiment. After a second stabilisation and washing period of at least 45 minutes, a concentration of the compound of the invention or of the reference product (SCH203099) or of the vehicle was incubated for 30 minutes. A concentration-accumulative response curve to the selective agonist PAR1, to TFLLR (0.1 μM to 0.1 mM) or to trypsin (10 U to 10,000 BAEE U/mL) was plotted.
(§4) These experiments were conducted on naive bladders. The protocol followed was the same as the protocol described in Example 1.

[2] = tested on: PAR; assay: trypsin-induced contraction of rat-isolated bladder strips, inflammation conditions (cyclophosphamide); settings: for amplitude of bladder contraction / reduction in bladder contraction: inflamed rat bladder; for amplitude of bladder contraction: trypsin 3000 BAEE U/mL; for reduction in bladder contraction: trypsin
Excerpt: as §1
(§5) To induce inflammation of the bladder, cyclophosphamide was bilaterally injected into the rats (Female Wistar Han rats weighing 250 to 275 g on the day of the experiment, obtained from Charles River laboratory, France) via intraperitoneal route at a dose of 150 mg/kg in a final volume of 5 mL/kg.
as §2, §3

[3] = target: T1, PAR1 (Rattus norvegicus, UniProt P26824); assay: TFLLR-induced contraction of rat-isolated bladder strips, naive animals
T1 construct: the bladder cut in longitudinal direction into two equal strips; from tissue; host or cells: isolated bladder strips of female Wistar Han rats (naive or 24 h after cyclophosphamide)
T1 sequence (P26824 22-432): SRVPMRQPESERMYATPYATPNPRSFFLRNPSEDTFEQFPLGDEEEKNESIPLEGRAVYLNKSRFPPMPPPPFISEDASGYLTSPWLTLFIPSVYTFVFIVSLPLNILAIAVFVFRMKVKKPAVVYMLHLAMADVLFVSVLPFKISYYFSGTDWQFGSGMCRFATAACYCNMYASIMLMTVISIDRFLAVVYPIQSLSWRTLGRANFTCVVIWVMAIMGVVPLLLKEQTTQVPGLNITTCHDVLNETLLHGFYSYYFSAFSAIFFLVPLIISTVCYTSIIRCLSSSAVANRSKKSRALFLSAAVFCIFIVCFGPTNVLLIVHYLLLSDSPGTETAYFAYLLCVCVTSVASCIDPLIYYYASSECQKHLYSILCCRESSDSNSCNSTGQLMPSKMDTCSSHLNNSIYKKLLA
Excerpt: as §1, §2, §3, §4

[4] = target: T1, PAR1; assay: TFLLR-induced contraction of rat-isolated bladder strips, inflammation conditions (cyclophosphamide); settings: inflamed rat bladder, 100 μM TFLLR
Excerpt: as §1, §5, §2, §3

[5] = solubility of the compound in the organ bath experiment; format: physicochemical; settings: noted at 10 μM and 30 μM in organ bath

SMILES | effect on trypsin-induced bladder contraction versus vehicle ([1]; compound 10 μM) | effect on trypsin-induced bladder contraction at the other concentrations [1] | amplitude of bladder contraction ([1]; compound 10 μM) [g] | amplitude of bladder contraction ([2]; compound 10 μM) [g] | amplitude of bladder contraction ([2]; compound 30 μM) [g] | reduction in bladder contraction ([2]; compound 10 μM) [%] | reduction in bladder contraction ([2]; compound 30 μM) | amplitude of bladder contraction ([3]; 100 μM TFLLR, compound 10 μM) [g] | amplitude of bladder contraction ([4]; compound 10 μM) [g] | reduction in bladder contraction ([4]; compound 10 μM) [%] | amplitude of bladder contraction ([4]; compound 30 μM) [g] | reduction in bladder contraction / contractile response ([4]; compound 30 μM) [%] | amplitude of bladder contraction ([1]; compound 3 μM) [g] | amplitude of bladder contraction ([3]; 100 μM TFLLR, compound 10 nM) [g] | reduction in bladder contraction ([3]; 100 μM TFLLR, compound 10 nM) | amplitude of bladder contraction ([3]; 100 μM TFLLR, compound 1 μM) [g] | effect on trypsin-induced bladder contraction versus vehicle ([1]; compound 30 μM) | also measured
CNc1nc(NC2CC2)nc2ccc3c(ccn3Cc3ccc(C(C)C)cc3)c12 [SCH203099] | divided by two | nothing was observed | 0.48 ± 0.11 | 1.77 ± 0.38 | 1.04 ± 0.16 | 35 | 60% | 0.26 ± 0.07 | 0.73 ± 0.10 | 35 | 0.49 ± 0.08 | 55 |  |  |  |  |  | amplitude of bladder contraction ([2]; compound 3 μM): 2.05 ± 0.53 g; reduction in bladder contraction ([2]; compound 3 μM): 25%; effect on TFLLR-induced bladder contraction versus vehicle ([3]; compound 10 μM): divided by two; effect on TFLLR-induced bladder contraction at the other concentrations ([3]; other concentrations tested): nothing was observed; reduction in bladder contraction ([4]; compound 3 μM (no conclusive effect)): 10%
CCOC(=O)N[C@@H]1CC[C@@H]2[C@@H](C1)C[C@H]1C(=O)O[C@H](C)[C@H]1[C@H]2/C=C/c1ccc(-c2cccc(F)c2)cn1 [vorapaxar, ethyl N-[(3R,3aS,4S,4aR,7R,8aR,9aR)-4-[(E)-2-[5-(3-fluorophenyl)-2-pyridyl]vinyl]-3-methyl-1-oxo-3a,4,4a,5,6,7,8,8a,9,9a-decahydro-3H-benzo[f]isobenzofuran-7-yl]carbamate] | lesser efficacy |  |  |  |  |  |  |  |  |  |  |  | 0.79 ± 0.14 | 0.14 ± 0.02 | 75% | 0.04 ± 0.03 |  | amplitude of bladder contraction ([3]; 100 μM TFLLR, compound 3 nM): 0.31 ± 0.12 g; reduction in bladder contraction ([3]; 100 μM TFLLR, compound 3 nM): ~50%; effect on TFLLR-induced bladder contraction ([3]; compound from 1 μM): completely abolishes; solubility [5]: low solubility
CCOc1cc2c(c(F)c1OCC)C(=N)N(CC(=O)c1cc(N3CCOCC3)c(OC)c(C(C)(C)C)c1)C2 [atopaxar, [(1-(3-tert-butyl-4-methoxy-5-morpholinophenyl)-2-(5,6-diethoxy-fluoro-1-imino-1,3-dihydro-2H-isoindol-2yl)ethanone hydrobromide] |  |  | 0.36 ± 0.15 |  |  |  |  |  |  |  |  |  | 0.74 ± 0.19 | 0.21 ± 0.03 | more than 50% | 0.08 ± 0.03 | completely abolishes | effect on trypsin-induced bladder contraction versus vehicle ([1]; compound 1 μM): slight reduction; amplitude of bladder contraction ([1]; compound 1 μM): 1.02 ± 0.20 g; reduction in bladder contraction ([1]; compound 3 μM): 38%; reduction in bladder contraction ([1]; compound 10 μM): 70%; decrease of bladder contraction ([3]; 100 μM TFLLR, compound 1 μM): more than 80%
O=C(/C=C/c1ccccc1Cl)N1CCN(Cc2ccc(F)cc2)CC1 [compound of the invention, 3-(2-Chloro-phenyl)-1-[4-(4-fluoro-benzyl)-piperazin-1-yl]-propenone] |  | nothing was observed |  | 1.76 ± 0.30 | 0.92 ± 0.17 | 35 | about 70% | 0.18 ± 0.04 | 0.45 ± 0.13 | 60 | 0.11 ± 0.04 | 90 |  |  |  |  | divided by two | amplitude of bladder contraction ([1]; compound 30 μM): 0.55 ± 0.24 g; effect on trypsin-induced bladder contraction ([2]; inflamed rat bladder (cyclophosphamide), compound up to 3 μM): inactive; amplitude of bladder contraction ([3]; 100 μM TFLLR, compound 3 μM): 0.33 ± 0.05 g; reduction in bladder contraction ([3]; 100 μM TFLLR, compound 3 μM): 45%; reduction in bladder contraction ([3]; 100 μM TFLLR, compound 10 μM): 70%; amplitude of bladder contraction ([3]; 100 μM TFLLR, compound 30 μM): 0.00 ± 0.04 g; effect on TFLLR-induced bladder contraction ([3]; compound 1 μM): inactive; effect on TFLLR-induced bladder contraction ([3]; compound 30 μM): completely abolished; reduction in bladder contraction ([4]; compound up to 3 μM (no conclusive effect)): 10%
